COC(=O)c1cc(OC)c(OC(=O)c2cccnc2)c(OC)c1
melting point: 173 to 175 °C

Source: patent US20220009892A1, “SUBSTITUTED PYRIDINE CARBOXYLIC ACIDS, THEIR PREPARATION METHOD AND COMPOSITIONS THEREOF” (INCILIA THERAPEUTICS PRIVATE LIMITED, priority 2018, published 2022)
